Read-outs that look alike come from different tables or passages of the source.

In one assay the target is AKT2 (Homo sapiens, UniProt P31751). In words: KINOMEscan: AKT2. The class given is binding. The settings on record: 1000 nM, read-out: Percent Control.
A further assay deals with FLT3(D835Y) (Homo sapiens, UniProt P36888, D835Y). Kind of assay: KINOMEscan: FLT3(D835Y). Particulars: 1000 nM, read-out: Percent Control. The class given is binding.
Another assay concerns the target MAP4K2 (Homo sapiens, UniProt Q12851). Kind of assay: KINOMEscan: MAP4K2. It counts as binding. Particulars: 1000 nM, read-out: Percent Control.
The target of another assay is ACVR2B (Homo sapiens, UniProt Q13705). In words: KINOMEscan: ACVR2B. The class given is binding. The settings on record: 1000 nM, read-out: Percent Control.
A further assay deals with MTOR (Homo sapiens, UniProt P42345). In words: KINOMEscan: MTOR. It counts as binding. The settings on record: 1000 nM, read-out: Percent Control.
The next assay has as its system CLL patient samples. Kind of assay: Western blot of CLL patient samples. It counts as cell-based, human. The settings on record: 1 µM, 8 h. The protocol:
Lysate concentration was quantified using Pierce™ BCA Protein Assay Kit (ThermoFiser Scientific – cat. 23225) and proteins were analyzed via immunoblot. A full list of antibodies may be found in the supplementary methods section. All images are representative of three independent experiments.
P-TEFb’s role in regulating transcription through POLII CTD phosphorylation is a canonical function of this complex. To interrogate the transcriptional changes associated with VIP152 treatment, we treated B-cells, isolated from four patients with treatment-naïve CLL, with 1 µM VIP152 or DMSO for two hours followed by fluorescence-assisted cell sorting for 500 live (Sytox^−), CD45^+/CD5^+/CD19^+ cells (Fig. 3A). Our group has previously defined an analysis pipeline, named CLEAR, which identifies evenly distributed reads for differentially expressed gene (DEG) analysis. […] When we looked at the expression of these differentially abundant genes via an unsupervised clustered heatmap, we noted that there was high concordance between the patient samples with clustering dependent on treatment group (Fig. 3C). The treatment did induce decreased transcript abundance of genes previously reported to be controlled by CDK9 activity, namely JUNB, BTG1, and MCL1 [45, 46]. Downregulation of the anti-apoptotic MCL1 (LFC: −1.231056 & p-value = 0.02) likely contributes to the susceptibility of primary CLL cells to apoptosis (Fig. 2F, G). […] It has been established that AU-rich element (ARE) mRNA molecules are under tight temporal regulation and control a variety of cellular processes. Moreover, the relationship between P-TEFb mediated transcription and ARE-bearing mRNA has previously been described. […] We appreciate from our limiting-cell RNA sequencing experiments that the loss of tristetrapolin (ZFP36) transcripts (LFC: −4.02; adjusted p-value: 7.97*10^−40) and the upregulation of ribosomal transcripts, likely correspond to a possible compensatory mechanism by which these cells attempt to improve translational output and maximize transcript maintenance in response to VIP152-induced transcriptional shutdown. […] We looked at transcripts which had been shown by photoactivatable ribonucleoside cross-linking and immunoprecipitation (PAR-CLIP) to interact with ZFP36 [50]. […]
Fig. 3 VIP152 induces rapid transcriptomic changes. […] E–G 7 CLL patient samples were treated for 8 h with 1 µM VIP152 and then analyzed for protein expression by western blot (E, F) and ZFP36, ZFP36L1, and ZFP36L2 expression by qRT-PCR (G). H–L 5 CLL patient samples were treated for 8 h with 1 µM VIP152 and then supplemented with 500 nM Actinomycin-D. RNA was taken at varying timepoints and analyzed via qRT-PCR. M mRNA half-lives of analyzed transcripts in (H–L) as determined by nonlinear regression using a one-phase decay method.
(In western blotting, separated proteins are transferred to a membrane and probed.)

The target in the next assay is VPS34 (Homo sapiens, UniProt Q8NEB9). In words: KINOMEscan: VPS34. The class given is binding. The settings on record: 100 nM, read-out: Percent Control.
Another assay concerns the target FGFR2 (Homo sapiens, UniProt P21802). Kind of assay: KINOMEscan: FGFR2. It counts as binding. Particulars: 1000 nM, read-out: Percent Control.
The target of a further assay is T1, ABL1 (Homo sapiens, UniProt P00519, F317I).
T1 sequence (P00519 229-512 F317I): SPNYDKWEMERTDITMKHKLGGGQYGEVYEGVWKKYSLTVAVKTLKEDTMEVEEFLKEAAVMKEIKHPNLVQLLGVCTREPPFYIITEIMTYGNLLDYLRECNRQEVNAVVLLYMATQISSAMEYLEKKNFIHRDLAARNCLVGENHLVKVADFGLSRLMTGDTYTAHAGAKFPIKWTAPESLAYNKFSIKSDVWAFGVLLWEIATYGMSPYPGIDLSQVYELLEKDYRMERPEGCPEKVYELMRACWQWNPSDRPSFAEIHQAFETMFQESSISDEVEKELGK
Kind of assay: KINOMEscan: ABL1. The settings on record: read-out: Percent Control; for remaining binding at 0.1 µM: 100 nM; for remaining binding at 1 µM: 1000 nM. The class given is binding. The protocol: The structure and synthesis of VIP152 were recently described by Lücking et al.. (Fig. 1A); however, the selectivity of the molecule in cellular systems has yet to be explored. […] We also performed this experiment at 1000 nM, where CDK9 was inhibited at 99%. […] We found a strong concordance between our data and those of Lücking when comparing the most inhibited kinases. Potential off-target effects of VIP152 were next tested in vitro at a concentration of 10 µM for off-target activity against a broad range of receptors, transporters, ion channels, and enzymes (n = 138) using the Eurofins Diversity Panel.
Kinomescan Kinase Profiling Assay
Kinomescan Assay was performed at DiscoverRX and described in Fabian, et al. 2005, Nat.
Biotechnol. In brief, kinases were produced and subsequently tagged with DNA for qPCR detection.
Streptavidin-coated magnetic beads were bound to biotinylated kinase ligands to serve as a solid support.
VIP152 was dissolved in DMSO and tested across a 10 serial threefold dilution set and compared to a test compound and a DMSO control. Kinases which were inhibited by VIP152 would not be bound to the solid-support resulting in decreased substrate for the qPCR reaction. Kinome map was produced via TreeSpot Analysis from DiscoverRX. […]

In another assay the target is GCN2(Kin.Dom.2,S808G) (Homo sapiens, UniProt Q9P2K8, S808G). Kind of assay: KINOMEscan: GCN2(Kin.Dom.2,S808G). The settings on record: 1000 nM, read-out: Percent Control. The class given is binding.
GCN2(Kin.Dom.2,S808G), sequence (Q9P2K8 590-1001 S808G limits assumed): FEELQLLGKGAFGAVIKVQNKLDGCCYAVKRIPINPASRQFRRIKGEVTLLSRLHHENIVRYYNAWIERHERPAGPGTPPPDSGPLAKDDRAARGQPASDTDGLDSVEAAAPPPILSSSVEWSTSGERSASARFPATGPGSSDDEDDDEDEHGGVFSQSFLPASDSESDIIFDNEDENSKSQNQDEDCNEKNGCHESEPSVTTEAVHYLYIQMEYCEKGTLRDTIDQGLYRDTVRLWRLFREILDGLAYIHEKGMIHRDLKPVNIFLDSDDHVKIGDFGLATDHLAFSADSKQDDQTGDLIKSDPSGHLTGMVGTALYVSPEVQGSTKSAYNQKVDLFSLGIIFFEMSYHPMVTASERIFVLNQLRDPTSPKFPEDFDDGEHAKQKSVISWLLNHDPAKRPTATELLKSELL

ACVR2B, sequence (Q13705 19-512): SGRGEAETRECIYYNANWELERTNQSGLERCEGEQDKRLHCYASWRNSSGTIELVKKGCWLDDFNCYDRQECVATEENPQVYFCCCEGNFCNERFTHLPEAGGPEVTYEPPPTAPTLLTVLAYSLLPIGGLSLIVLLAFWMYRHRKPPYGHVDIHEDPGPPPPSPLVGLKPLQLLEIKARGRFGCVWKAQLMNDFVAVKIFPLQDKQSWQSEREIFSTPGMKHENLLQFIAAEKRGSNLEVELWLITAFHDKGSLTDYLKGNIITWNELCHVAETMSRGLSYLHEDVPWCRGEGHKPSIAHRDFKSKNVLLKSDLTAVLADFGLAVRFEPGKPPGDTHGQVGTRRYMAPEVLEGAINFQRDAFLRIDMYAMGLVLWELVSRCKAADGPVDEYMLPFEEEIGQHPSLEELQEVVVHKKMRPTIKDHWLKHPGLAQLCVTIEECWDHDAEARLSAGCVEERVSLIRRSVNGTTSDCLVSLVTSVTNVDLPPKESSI
VPS34, sequence (Q8NEB9 whole entry): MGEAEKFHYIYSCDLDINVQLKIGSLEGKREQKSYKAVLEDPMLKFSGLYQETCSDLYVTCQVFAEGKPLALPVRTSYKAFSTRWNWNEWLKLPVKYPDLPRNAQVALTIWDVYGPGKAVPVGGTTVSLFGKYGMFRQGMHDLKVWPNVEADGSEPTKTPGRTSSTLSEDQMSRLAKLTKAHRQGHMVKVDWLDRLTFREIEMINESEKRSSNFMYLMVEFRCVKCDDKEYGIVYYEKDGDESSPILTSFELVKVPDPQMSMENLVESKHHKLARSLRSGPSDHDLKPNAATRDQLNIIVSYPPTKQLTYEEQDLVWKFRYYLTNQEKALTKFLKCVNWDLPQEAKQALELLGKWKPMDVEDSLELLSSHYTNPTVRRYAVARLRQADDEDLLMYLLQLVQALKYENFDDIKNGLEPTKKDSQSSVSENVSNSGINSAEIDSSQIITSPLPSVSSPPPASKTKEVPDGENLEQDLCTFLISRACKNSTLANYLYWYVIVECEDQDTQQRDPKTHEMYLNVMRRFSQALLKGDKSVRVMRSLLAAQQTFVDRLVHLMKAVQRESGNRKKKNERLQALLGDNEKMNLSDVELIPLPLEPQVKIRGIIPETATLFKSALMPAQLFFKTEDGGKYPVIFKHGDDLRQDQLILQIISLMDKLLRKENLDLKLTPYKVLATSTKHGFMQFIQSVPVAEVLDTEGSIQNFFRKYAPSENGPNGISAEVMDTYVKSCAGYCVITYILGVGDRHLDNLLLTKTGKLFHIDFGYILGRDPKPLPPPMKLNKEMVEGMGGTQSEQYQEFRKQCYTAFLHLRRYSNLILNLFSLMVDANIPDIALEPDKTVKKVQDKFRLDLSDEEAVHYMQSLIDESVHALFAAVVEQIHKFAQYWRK
AKT2, sequence (P31751 whole entry): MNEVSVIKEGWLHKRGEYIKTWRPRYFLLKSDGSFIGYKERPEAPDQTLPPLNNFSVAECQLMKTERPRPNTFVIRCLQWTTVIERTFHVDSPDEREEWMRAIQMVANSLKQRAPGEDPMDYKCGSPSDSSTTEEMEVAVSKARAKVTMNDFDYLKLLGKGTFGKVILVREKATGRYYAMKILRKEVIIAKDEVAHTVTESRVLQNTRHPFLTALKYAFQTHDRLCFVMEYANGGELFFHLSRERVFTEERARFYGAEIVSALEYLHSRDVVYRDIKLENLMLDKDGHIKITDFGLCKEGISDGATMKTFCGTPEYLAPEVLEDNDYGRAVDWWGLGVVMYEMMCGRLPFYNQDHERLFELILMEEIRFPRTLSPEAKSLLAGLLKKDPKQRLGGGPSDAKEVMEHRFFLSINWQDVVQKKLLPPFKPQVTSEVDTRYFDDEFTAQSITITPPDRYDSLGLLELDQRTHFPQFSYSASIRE
MAP4K2, sequence (Q12851 whole entry): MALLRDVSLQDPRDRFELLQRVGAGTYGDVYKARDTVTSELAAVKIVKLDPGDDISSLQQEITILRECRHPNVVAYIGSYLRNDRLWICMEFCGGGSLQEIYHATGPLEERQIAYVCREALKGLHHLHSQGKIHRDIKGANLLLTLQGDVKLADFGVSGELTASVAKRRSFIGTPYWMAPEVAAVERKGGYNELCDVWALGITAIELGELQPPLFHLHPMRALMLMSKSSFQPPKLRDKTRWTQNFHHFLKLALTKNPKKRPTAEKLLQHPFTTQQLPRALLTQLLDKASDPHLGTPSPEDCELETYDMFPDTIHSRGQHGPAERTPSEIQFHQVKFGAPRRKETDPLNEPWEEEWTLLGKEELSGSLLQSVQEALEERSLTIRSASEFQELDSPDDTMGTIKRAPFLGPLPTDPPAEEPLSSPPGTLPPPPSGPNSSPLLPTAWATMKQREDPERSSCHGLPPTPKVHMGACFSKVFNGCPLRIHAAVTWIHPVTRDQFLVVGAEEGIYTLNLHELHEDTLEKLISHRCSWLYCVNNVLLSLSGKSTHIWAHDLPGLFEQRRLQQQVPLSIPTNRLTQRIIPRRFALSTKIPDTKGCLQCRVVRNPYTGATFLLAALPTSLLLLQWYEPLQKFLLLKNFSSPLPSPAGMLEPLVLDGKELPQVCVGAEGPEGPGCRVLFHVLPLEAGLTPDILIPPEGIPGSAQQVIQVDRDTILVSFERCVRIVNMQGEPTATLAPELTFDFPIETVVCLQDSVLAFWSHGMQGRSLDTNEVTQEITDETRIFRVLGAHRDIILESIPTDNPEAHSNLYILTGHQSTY
FGFR2, sequence (P21802 22-821): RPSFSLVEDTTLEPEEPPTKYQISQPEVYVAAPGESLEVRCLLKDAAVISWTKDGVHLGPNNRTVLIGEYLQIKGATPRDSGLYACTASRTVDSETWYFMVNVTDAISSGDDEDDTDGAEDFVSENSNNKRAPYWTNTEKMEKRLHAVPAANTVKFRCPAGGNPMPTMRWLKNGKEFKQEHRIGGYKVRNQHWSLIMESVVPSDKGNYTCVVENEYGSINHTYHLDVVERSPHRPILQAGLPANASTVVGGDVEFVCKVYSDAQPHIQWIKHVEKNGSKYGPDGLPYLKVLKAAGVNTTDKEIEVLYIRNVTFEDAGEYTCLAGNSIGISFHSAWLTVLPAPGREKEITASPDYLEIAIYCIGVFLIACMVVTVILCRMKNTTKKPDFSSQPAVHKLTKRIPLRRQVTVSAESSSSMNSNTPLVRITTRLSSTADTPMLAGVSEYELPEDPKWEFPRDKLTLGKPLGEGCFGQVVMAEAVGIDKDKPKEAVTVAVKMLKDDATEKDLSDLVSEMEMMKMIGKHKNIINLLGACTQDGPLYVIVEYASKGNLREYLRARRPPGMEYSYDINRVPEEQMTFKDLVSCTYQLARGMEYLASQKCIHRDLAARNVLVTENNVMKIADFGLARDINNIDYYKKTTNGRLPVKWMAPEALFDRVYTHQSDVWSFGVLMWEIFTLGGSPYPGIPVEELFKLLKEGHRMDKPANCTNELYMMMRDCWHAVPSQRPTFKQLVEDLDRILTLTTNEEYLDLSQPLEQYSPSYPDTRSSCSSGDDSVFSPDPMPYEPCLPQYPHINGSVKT

For the molecule `COc1cc(F)ccc1-c1cc(Nc2cc(CS(C)(=N)=O)ccn2)ncc1F` (stereo not shown) [VIP152], the remaining binding at 1 µM was found to be 100% on AKT2; 67% on FLT3(D835Y); 26% at MAP4K2; 65% on ACVR2B; 100% at MTOR; 70% on FGFR2. Besides, the remaining binding at 1 µM at ABL1 (ABL1(F317I)-nonphosphorylated) was found to be 84%; on ABL1 (ABL1(F317I)-phosphorylated) it was 33%; on GCN2(Kin.Dom.2,S808G) it was 100%. Besides, the BTG1 protein entry with CLL patient samples is given as “not”. The JUNB protein result in the assay on CLL patient samples is “decrease”. For the same molecule, the MCL1 protein result with CLL patient samples is listed as “decrease”. In the assay with CLL patient samples (seven CLL patient samples), the “expression of tristetrapolin (ZFP36)” value is given as “decreased expression”. Besides, the remaining binding at 0.1 µM at VPS34 was 94%; at ABL1 (ABL1(F317I)-nonphosphorylated), 100%; on ABL1 (ABL1(F317I)-phosphorylated), 95%.

Source of the values: PMC9898036, “VIP152 is a selective CDK9 inhibitor with pre-clinical in vitro and in vivo efficacy in chronic lymphocytic leukemia” (Leukemia, 2022).
